Experimental data taken from US20230172944A1, “ROCK INHIBITORS FOR USE IN TREATING OR PREVENTING PULMONARY EDEMA” (ATRIVA THERAPEUTICS GMBH, priority 2020, published 2023).

How the values were obtained:
[1] = test system: IAV A/Puerto Rico/8/32 (H1N1); assay: Body weight of infected mice; type: in vivo, C57BL/6 mice; details: 10 mg/kg 1×daily in saline solution, 500 PFU/mouse, 7 days
Method: PR8: Body weight of mice infected with IAV A/Puerto Rico/8/32 (H1N1, 500 PFU/mouse). […] The experiment was planned for 7 days only. Afterwards the mice were euthanized for ethical reasons.
All animal experiments were performed according to the latest guidelines of the “Federation of European Laboratory Animal Science Associations (FELASA)” and approved by the local committee of the Max-Planck Laboratory for Heart & Lung Research Instituto de Investigación en Biomedicina de Buenos Aires (IBioBA). Six-week-old BALB/c mice (n=5 per group) were infected by intra-tracheal inoculation of 500 plaque-forming units (pfu)/mouse of PR8 in a volume of 30 μl. […] As a control IP injection of sterile PBS −/− were applied. Body weight was monitored every day until day 8 p.i.. On the day 7 after treatment start (=day 8 p.i.) mice were sacrificed by an overdose of isoflurane.

[2] = test system: IAV A/Puerto Rico/8/32 (H1N1); assay: Virus titer of lung homogenizates (foci assay); type: in vivo, mice; details: 10 mg/kg 1×daily for 6 days, 500 PFU/mouse, 7th day p.i., n=3
Method: PR8: Virus titer of lung homogenizates from mice infected with IAV A/Puerto Rico/8/32 (H1N1, 500 PFU/Mouse) were infected (7th day p.i.).
For the foci forming assay, MDCK II cells were seeded in 96-well plates at a concentration of 3×10^6 cells/plate. The next day, 10-fold dilutions in duplicates (from 10^−1 to 10^−8) in PBS+/+/BA/PS was prepared from each virus sample in U-shaped 96-well. Importantly, during the preparation of the dilutions the pipet tips were changed after each dilution step. The MDCK II cells in the 96-well plate(s) were washed once with PBS+/+. […] 1 hour later, cells again were washed with 400 μl of washing buffer and 40 μl 3-Amino-9-ethylcarbazole (AEC)-staining buffer (1×AEC diluted N—N-dimethylformamide in acetate buffer (50 mM ammonium acetate, 8.8 mM H202) were added to each well. Following incubation for 30 min at 37° C. until foci could be detected, the staining buffer was removed and cells were washed twice with dH2O. Air-dried plates were scanned by using the Epson Perfection V500 Photo scan (Epson) at 1200 dpi and total number of foci was determined per well. Since Avicel-medium has a high viscosity that prevents diffusion of virus particles in surrounding media, virus can spread only from one cell to other forming foci. […]

[3] = test system: IAV A/Puerto Rico/8/32 (H1N1); assay: Lung histology (Hematoxilin/Eosin) and nuclear count quantification of infiltrates; type: in vivo; details: 10 mg/kg 1×daily for 6 days, 5 mice, 7th day p.i., Aperio nuclear count
[4] = test system: polarized Calu3 cells infected with influenza virus A/Puerto Rico/8/34 (H1N1); assay: Vectorial water transport (FITC-dextran) over polarized Calu3 cells; type: cell-based, human
[5] = test system: Calu3 cells infected with influenza virus A/Puerto Rico/8/34 (H1N1); assay: Antibody staining and confocal laser-scanning microscopy of apical NKA localization; type: cell-based, human; details: PR8-infected Calu3 cells treated with ROCK inhibitor, 20 h p.i.
Method: In order to obtain highly polarized Calu3 cells, the cell monolayer in a 175 cm^2 tissue culture flask grown to 50% confluence was washed once with PBS −/− and treated with Trypsin-EDTA. Cells were resuspended in 10 ml culture medium and centrifuged for 15 min at 300×g, 24° C. Supernatant was discarded and cells were resuspended in 5 ml of culture medium. 30 μl of cell suspension were mixed with 30 μl of 0.4% trypan blue dye and cell concentration was calculated in Neubauer chamber according manufacturer's instruction. Cells were dilute to a concentration of 2×10^6 viable cells/ml in Calu3 culture medium and 250 μl/125 μl of the cell suspension containing 0.5×10^6/0.25×10^6 viable cells were placed to the apical compartment of each Transwells® insert in a 12/24 well plate. 1/0.3 ml of Calu-3 culture medium was added into the basolateral compartments, avoiding the introduction of air bubbles and cells were cultivated at 37° C., 5% CO2. For the cells grown under the Liquid-Liquid Interface (LLI) condition, medium was replaced in both compartments each second day. For Air-Liquid Interface (ALI), culture medium was aspirated from the apical compartment on the day two, whereas medium was replaced every 2 days in the basolateral compartments.
For immunofluorescence assay cells were washed ones with PBS+/+ and fixed with or without extra permeabilization at the indicated time points. […]

[6] = test system: Calu3 cells infected with influenza virus A/Puerto Rico/8/34; assay: Coomassie staining of confluent polarized Calu3 cells (virus-induced epithelial cell damage); type: cell-based; details: 5 μM, MOI=5, Coomassie 24 h p.i.

Structure (SMILES): Cl.O=S(=O)(c1cccc2cnccc12)N1CCCNCC1 [Fasudil HCl, Isoquinoline 5-[(hexahydro-1H-1,4-diazepin-1-yl)sulfonyl]-N-(5-Isoquinolinesulfonyl)-1,4-per-hydrodiazepine]
- body weight loss of infected mice [1]: tendential reduction of the body weight loss
- virus titer in the lungs of infected mice [2]: reduces the virus titer in the lungs of infected mice
- number of infiltrates (quantification, total cell count/mm2) [3]: reduces the number of infiltrates

Structure (SMILES): O=C(NCc1cccc(O)c1)Nc1nc(-c2ccncc2)cs1 [Rho XIII, 1-(3-Hydroxybenzyl)-3-(4-(pyridin-4-yl)thiazol-2-yl)urea]
- vectorial water transport (VWT) [4]: improves vectorial water transport
- apical sodium-potassium-ATPase (NKA) localization [5]: prevents apical sodium-potassium-ATPase (NKA) localization
- cell viability of infected Calu3 cells (Calu3 cells): increases cell viability
- cell viability of non-infected Calu3 cells (Calu3 cells; 5 μM, 0, 6, 16, 24 hours, mock set to 100%): increases cell viability
- virus-induced epithelial cell damage (cytopathic effect) [6]: reduces virus-induced epithelial cell damage in vitro
